This is an account of results in article PMC3304006 (Journal of the American Chemical Society, 2012).

The target of the test is free peptide Cys-Lys-D-Ala-D-Ala. Description: SPR binding to immobilized free peptide. To be noted: read-out: KD values from the current work, Free peptide, equilibrium fit, 25 °C. In general terms: Surface plasmon resonance follows binding to a sensor surface in real time, without labels.
Turning to `CN[C@H]1C(=O)N[C@@H]2Cc3ccc(cc3)Oc3cc4cc(c3O[C@@H]3O[C@H](C(=O)O)[C@@H](O)[C@H](O)[C@H]3NC(=O)CCCCCCCCC(C)C)Oc3ccc(cc3Cl)[C@@H](O)[C@@H]3NC(=O)[C@H](NC(=O)[C@@H]4NC(=O)[C@@H](NC2=O)c2cc(cc(O)c2Cl)Oc2cc1ccc2O)c1ccc(O)c(c1)-c1c(O[C@H]2O[C@H](CO)[C@@H](O)[C@H](O)[C@@H]2O)cc(O)cc1[C@@H](C(=O)NCCCN(C)C)NC3=O` [Dalbavancin], the Kd stood at 855 ± 100 nM.
In the case of `CN[C@H](CC(C)C)C(=O)N[C@H]1C(=O)N[C@@H](CC(N)=O)C(=O)N[C@H]2C(=O)N[C@H]3C(=O)N[C@H](C(=O)N[C@H](C(=O)O)c4cc(O)cc(O)c4-c4cc3ccc4O)[C@H](O)c3ccc(c(Cl)c3)Oc3cc2cc(c3O[C@@H]2O[C@H](CO)[C@@H](O)[C@H](O)[C@H]2O[C@H]2C[C@](C)(N)[C@H](O)[C@H](C)O2)Oc2ccc(cc2Cl)[C@H]1O` [Vancomycin] it was 4160 ± 520 nM; in that of Ristocetin, 2420 ± 680 nM.

A word on the Kd: it is the free concentration of one partner at which half of the binding sites on the other are occupied at equilibrium, for simple one-to-one binding.
